Data as given in PMC10518255, “A first-in-class pan-lysyl oxidase inhibitor impairs stromal remodeling and enhances gemcitabine response and survival in pancreatic cancer” (Nature Cancer, 2023).
Where “and” joins values, the source holds several entries; their conditions need not be identical. Equal values may be shown once.

Tests used:
KPC PDAC tumors = experiment: SHG multiphoton imaging of fibrillar collagen in end-point KPC tumors; type: in vivo, mouse; conditions: for SHG peak signal intensity: 5 animals per group, 5 FOV per animal, single FOV values
Procedure: (§1) Fig. 4 PXS-5505 administered in a KPC in vivo survival study. a, Schematic of the KPC in vivo survival study. Presence of a primary tumor in KPC mice was confirmed by two independent researchers (positive diagnosis) before commencement of daily treatment (Tx) on one of four treatment arms as follows: vehicle, 0.9% saline; Gem, twice-weekly gemcitabine (100 mg kg^−1 i.p.); PXS-5505, daily PXS-5505 at 20 mg kg^−1 i.p.; and PXS-5505 + Gem, daily PXS-5505 at 20 mg kg^−1 i.p. + twice-weekly gemcitabine (100 mg kg^−1 i.p.). b, Table of median survival (since diagnosis/commencement of treatment) across the four treatment groups (n = 30 biologically independent animals (vehicle), n = 31 biologically independent animals (Gem), n = 36 biologically independent animals (PXS-5505), n = 46 biologically independent animals (PXS-5505 + Gem)). c, Kaplan–Meier curves for overall survival across treatment arms (n = 30 biologically independent animals (vehicle), n = 31 biologically independent animals (Gem), n = 36 biologically independent animals (PXS-5505), n = 46 biologically independent animals (PXS-5505 + Gem)). P values determined by log-rank (Mantel–Cox) test. d, Representative maximum intensity projections of SHG multiphoton imaging for tumors from each treatment group (n = 1 FOV taken from one biologically independent animal per group) at end point (scale bars, 100 μm) and quantification of SHG peak signal intensity (n = 5 biologically independent animals per group and five FOV per animal). Data are mean ± s.d. […] Quantification of metastases (n = 18 biologically independent animals (vehicle), n = 18 biologically independent animals (Gem), n = 17 biologically independent animals (PXS-5505), n = 15 biologically independent animals (PXS-5505 + Gem)). Data are mean ± s.d.
SHG imaging of fibrillar collagens was employed to analyze collagen density and organization as performed previously[28],[34],[58]. […] Intensity was recorded with a RLD HyD detector (440/20 nm). […] SHG signal intensities were measured using MATLAB (MathWorks) as described previously[28],[34],[58].

TKCC10 human PDX tumors = experiment: TKCC10 human model, picrosirius red birefringence after three rounds of therapy (Extended Data Fig. 5d); type: in vivo, mouse; conditions: for Quantification of red birefringent (mature) collagen fibres: Extended Data 5D, human PDXs at endpoint after 3 cycles of treatment, individual replicates
Procedure: Subcutaneous PDX studies were performed by implanting early passage PDX pieces (~4 mm^3) or TKCC10 CCs (1.5 × 10^6 cells per mouse in 100 μl PBS/Matrigel 1:1) into female (PDX) or male (TKCC10) 8-week-old immunocompromised nude Balb/c-Fox1nuAusb mice subcutaneously on the left flank. For the duration of the study, mice were kept in conventional caging with environmental enrichment, access to standard chow, water ad libitum and 12-h light–dark cycle at ambient temperature and humidity. Treatment began when tumors reached 150 mm^3, where each mouse was randomized into a treatment group and administered gemcitabine HCl (100 mg kg^−1 in saline) (Jomar Life Research) or vehicle control (0.9% saline) by i.p. injection twice weekly on day 2 and 4 of the treatment cycle until an ethical end point was reached. These included maximal tumor mass ≥10% of body weight, weight loss ≥20% from maximum body weight or tumor interfering with mobility and affecting access to food and water. Animals with non-tumor-related complications that led to a premature end point were censored. […] Tumor size was monitored every second day by calipers. Tumor volume was calculated using the formula (length × width^2)/2. […]
Extended Data Fig. 5 PXS-5505 in combination with gemcitabine in vivo. a. […] Signal is defined as the enzyme activity in the aorta, while noise is measured in the presence of a high concentration (300 µM) BAPN to abolish any lysyl oxidase family activity. […] FITC-dextran (molecular weight: 10 kDa) signal quantification from KPC tumor end point from each treatment group (vehicle n = 3 biologically independent animals, PXS-5505 n = 5 biologically independent animals, Gem n = 5 biologically independent animals, PXS-5505 + Gem n = 5 biologically independent animals). […] P-values determined by Welchs t-test. […] Quantification of red birefringent (mature) collagen fibers from human PDXs at end point after 3 cycles of treatment, treated as indicated. […] P values determined by Welchs t-test. g. […] Quantification of green birefringent (nascent) collagen fibers from human PDXs at end point, treated as indicated. […]

KPC mouse model of PDAC = experiment: Quantification of liver metastases (H&E), KPC survival study (Fig. 4g); type: in vivo; conditions: for liver metastases/mm2: individual animals
Procedure: as §1
The 4-µm formalin-fixed paraffin-embedded (FFPE) sections were cut and stained for H&E following standard histopathology methodologies or stained for CK19 using the Bond RX H2(30) protocol detailed above. […] The total number of liver metastases were quantified and determined using QuPath[57].

Row | Compound | fibrillar collagen / stromal content by SHG (KPC PDAC tumors) | SHG peak signal intensity (KPC PDAC tumors) | Quantification of red birefringent (mature) collagen fibres (TKCC10 human PDX tumors) | tumor fibrillar collagen content (picrosirius red birefringence) (TKCC10 human PDX tumors; TKCC10 model, three rounds of therapy) | metastatic foci / metastatic burden in the liver (KPC mouse model of PDAC; compared to vehicle) | liver metastases/mm2 (KPC mouse model of PDAC)
1 | Nc1ccn([C@@H]2O[C@H](CO)[C@@H](O)C2(F)F)c(=O)n1 [Gem, gemcitabine] | significantly increased stromal content | 116.837 and 121.251 and 74.7808 and 58.0704 and 58.6614 and 88.5172 and 66.9647 and 76.4458 and 85.1379 and 61.658 and 86.6036 and 56.3648 and 49.2982 and 91.4138 and 56.7061 and 67.2683 and 73.645 and 75.3134 and 83.1972 and 82.1163 and 64.6996 and 72.2796 and 40.261 and 45.2578 and 54.2825 | 806 and 284 and 128 and 654 and 1145 and 167 and 291 and 56 and 399 and 263 and 1177 and 403 and 843 and 2660 and 1208 and 745 and 4462 and 5568 and 5319 and 1528 and 2340 and 4185 and 3205 and 2211 and 5904 | increases fibrillar collagen I content | did not reduce the number of metastatic foci | 0.000998 /mm2 and 0.00153 /mm2 and 0.000533 /mm2 and 0.002596 /mm2 and 0.002539 /mm2 and 0.002266 /mm2 and 0.001775 /mm2 and 0.001805 /mm2 and 0.001681 /mm2 and 0.002472 /mm2 and 0.001465 /mm2 and 0.003681 /mm2 and 0.001157 /mm2 and 0.004279 /mm2 and 0.0007747 /mm2 and 0.000926 /mm2 and 0.002131 /mm2 and 0.001372 /mm2
2 | Cl.Cl.NC/C=C(\F)CS(=O)(=O)c1cccc2cccnc12.O [PXS-5505, (Z)-3-fluoro-4-(quinolin-8-ylsulfonyl)but-2-en-1-amine dihydrochloride monohydrate] | – | 45.7826 and 42.6725 and 46.4759 and 51.7331 and 29.3681 and 51.0162 and 24.7531 and 11.1698 and 19.0235 and 45.4063 and 19.8592 and 24.5743 and 17.8792 and 16.4101 and 14.0868 and 27.3224 and 22.509 and 34.8879 and 24.4703 and 26.4774 and 34.2776 and 17.1388 and 29.5006 and 45.3832 and 44.8772 | 965 and 112 and 188 and 2 and 295 and 380 and 3894 and 62 and 792 and 254 and 25 and 1015 and 164 and 72 and 282 and 10 and 83 (2×) and 9 and 15 and 1307 and 917 and 737 and 1467 and 503 | – | – | 0.001562 /mm2 and 0.001978 /mm2 and 0.00288 /mm2 and 0.001774 /mm2 and 0.002087 /mm2 and 0.001249 /mm2 and 0.00165 /mm2 and 0.00324 /mm2 and 0.001709 /mm2 and 0.002256 /mm2 and 0.001847 /mm2 and 0.001474 /mm2 and 0.001116 /mm2 and 0.0009543 /mm2 and 0.001461 /mm2 and 0.00148 /mm2 and 0.001125 /mm2
